According to paper PMC11401861, “Assessment of the in vitro anti-diabetic activity with molecular dynamic simulations of limonoids isolated from Adalia lemon peels” (Scientific Reports, 2024):
≈ marks a conversion by molar mass, not a printed value.

Assays:
[1] = biological target: α-glucosidase; test: α-Glucosidase enzyme inhibition assay; assay type: biochemical
Description: (§1) All in vitro biological activities of the limonoids-rich extract and the isolated compounds were assayed in triplicate at three different concentrations (50, 100, and 200 µg/mL).
(§2) The IC50 of each tested sample was determined by plotting a curve using a series of sample concentrations against the percent of enzyme inhibition.

[2] = ABTS radical scavenging assay
Description: as §1
(§3) The ABTS scavenging capacities of the samples were compared with that of ascorbic acid. The percent inhibition of the ABTS radical was calculated. The IC50 of each tested sample was determined by plotting a curve using a series of sample concentrations against the percent of ABTS inhibition.

[3] = Iron reducing power (IRP), method of Oyaizu
[4] = test system: α-amylase; test: Native electrophoretic α-amylase isoenzyme pattern (PAGE); assay type: biochemical; conditions: standard enzyme treated with 100 µg/mL
Description: (§4) The relative mobility (Rf), band quantity (Qty) and band percent (B%) of the electrophoretically detected isoenzyme types on the PAGE plate were determined using the Quantity One software program (version 4.6.2). The equation proposed by Nei and Li[39] was used to calculate the percentages of similarity index (SI%) and physiological difference (Diff%).

[5] = Total antioxidant capacity (TAC), method of Prieto et al.
Description: as §1
The method proposed by Prieto et al.[30] was used to determine the total antioxidant capacity (TAC) expressed as mg […] equivalent per gram weight, using ascorbic acid at the same concentrations as a standard.

[6] = DPPH radical scavenging activity
Description: as §1
The 1,1-Diphenyl-2-picryl-hydrazyl (DPPH) radical scavenging activity was evaluated using the method described by Rahman et al.[32]. Ascorbic acid was used as a positive control at the same concentrations. The inhibition percentage of the DPPH free radical was calculated. The median inhibitory concentration (IC50) of each tested sample was determined by plotting a curve using a series of sample concentrations against the percentage of DPPH inhibition.

[7] = Nitric oxide (NO) radical scavenging activity (Griess Illosvory reagent)
Description: as §1
as §3, with “The nitric oxide (NO) radical scavenging activity was estimated by the reaction with Griess Illosvory reagent based on the method proposed by Chakraborthy[34]. The NO” for “The ABTS”, “the NO” for “the ABTS”, “of NO” for “of ABTS”

[8] = test system: α-glucosidase; test: SDS-PAGE electrophoretic α-glucosidase pattern; assay type: biochemical; conditions: 100 µg/mL
Description: as §4

[9] = biological target: α-amylase; test: α-Amylase enzyme inhibition assay; assay type: biochemical
Description: as §1, §2

CC1(C)OC(=O)C[C@H](O)[C@]2(C)[C@H]3CC[C@@]4(C)[C@H](c5ccoc5)OC(=O)[C@H]5O[C@]54[C@]3(C)C(=O)C[C@@H]12 [Cpd2, deacetylnomilin]
IC50 against α-glucosidase ([1]; Fig. 2b): 3.89 ± 0.03 µg/mL (≈ 8.23 µM) | α-Glucosidase Inhibition (%) ([1]; sample concentration 50 µg/mL): 9.34 ± 0.06% | α-Glucosidase Inhibition (%) ([1]; sample concentration 100 µg/mL): 16.63 ± 0.10% | α-Glucosidase Inhibition (%) ([1]; sample concentration 200 µg/mL): 29.59 ± 0.19% | IC50 against ABTS radical ([2]; Fig. 2a): 6.02 ± 0.03 µg/mL (≈ 12.7 µM) | ABTS Inhibition (%) ([2]; sample concentration 50 µg/mL): 16.59 ± 0.06% | ABTS Inhibition (%) ([2]; sample concentration 100 µg/mL): 29.53 ± 0.10% | ABTS Inhibition (%) ([2]; sample concentration 200 µg/mL): 52.56 ± 0.19% | IRP ([3]; sample concentration 50 µg/mL): 16.59 ± 0.06 µg/mL | IRP ([3]; sample concentration 100 µg/mL): 29.53 ± 0.10 µg/mL | IRP ([3]; sample concentration 200 µg/mL): 52.56 ± 0.19 µg/mL | Change in electrophoretic α-amylase isoenzyme pattern [4]: slight changes | Diff% (physiological difference) of electrophoretic α-amylase pattern from the standard enzyme [4]: 33.33% | SI% (similarity index) of electrophoretic α-amylase pattern to the standard enzyme [4]: 66.67% | TAC ([5]; sample concentration 50 µg/mL): 21.74 ± 0.06 mg gallic acid/g | TAC ([5]; sample concentration 100 µg/mL): 38.70 ± 0.10 mg gallic acid/g | TAC ([5]; sample concentration 200 µg/mL): 68.88 ± 0.19 mg gallic acid/g | melting point: 254 °C | IC50 against DPPH radical ([6]; Fig. 2a): 6.40 ± 0.02 µg/mL (≈ 13.5 µM) | DPPH Inhibition (%) ([6]; sample concentration 50 µg/mL): 18.90 ± 0.05% | DPPH Inhibition (%) ([6]; sample concentration 100 µg/mL): 33.65 ± 0.09% | DPPH Inhibition (%) ([6]; sample concentration 200 µg/mL): 59.90 ± 0.16% | IC50 against NO radical ([7]; Fig. 2a): 7.65 ± 0.04 µg/mL (≈ 16.2 µM) | NO Inhibition (%) ([7]; sample concentration 50 µg/mL): 13.75 ± 0.05% | NO Inhibition (%) ([7]; sample concentration 100 µg/mL): 24.48 ± 0.09% | NO Inhibition (%) ([7]; sample concentration 200 µg/mL): 43.58 ± 0.16% | Diff% (decrease in the quantity of the identified α-glucosidase band) [8]: 40.64% | Qty (band quantity) of the α-glucosidase band [8]: 11.08 | IC50 against α-amylase ([9]; Fig. 2b): 5.07 ± 0.03 µg/mL (≈ 10.7 µM) | α-Amylase Inhibition (%) ([9]; sample concentration 50 µg/mL): 13.49 ± 0.06% | α-Amylase Inhibition (%) ([9]; sample concentration 100 µg/mL): 24.01 ± 0.10% | α-Amylase Inhibition (%) ([9]; sample concentration 200 µg/mL): 42.74 ± 0.19%
